Activity calls are given as the source filed them. The rule behind the calls is not given here.
Key:
[1] = system: Bacillus subtilis subsp. subtilis str. 168; experiment: Copper chelating activity in Bacillus subtilis 168 assessed as reduction in cytochrome c oxidase activity by measuring increase in ROS level at 10 uM measured over 40 mins by H2DCFDA staining based fluorescence method relative to control
Mushroom tyrosinase = Mushroom tyrosinase (Agaricus bisporus, UniProt O42713+Q00024+C7FF04+C7FF05); experiment: Inhibition of mushroom tyrosinase using L-DOPA as substrate preincubated for 10 mins followed by substrate addition and measured after 15 mins by spectrophotometric method
Bacillus subtilis [2] = experiment: Antibacterial activity against Bacillus subtilis 168 at 10 uM after 12 hrs relative to control; type: functional
Klebsiella pneumoniae = experiment: Antibacterial activity against Klebsiella pneumoniae CMCC 46117 at 10 uM after 12 hrs relative to control; type: functional
Bacillus subtilis [3] = experiment: Antibacterial activity against Bacillus subtilis 168 assessed as inhibition rate at 100 uM after 12 hrs relative to control; type: functional; conditions: subsp. subtilis str. 168, 12 h
[4] = system: Acinetobacter baumannii ATCC 19606 = CIP 70.34 = JCM 6841; experiment: Copper chelating activity in Acinetobacter baumannii ATCC 19606 assessed as increase in ROS level at 10 uM measured over 40 mins by H2DCFDA staining based fluorescence method
Bacillus subtilis [5] = experiment: Antibacterial activity against Bacillus subtilis 168 in presence of Fe2+ by paper disk assay; type: functional, organism-based; conditions: subsp. subtilis str. 168
Bacillus subtilis [6] = experiment: Antibacterial activity against Bacillus subtilis 168 in presence of Fe3+ by paper disk assay; type: functional, organism-based; conditions: subsp. subtilis str. 168
Bacillus subtilis [7] = experiment: Antibacterial activity against Bacillus subtilis 168 in presence of CuCl2 by paper disk assay; type: functional, organism-based; conditions: subsp. subtilis str. 168
Enterococcus faecalis = experiment: Antibacterial activity against Enterococcus faecalis ATCC 29212 at 10 uM after 12 hrs relative to control; type: functional
[8] = system: Bacillus subtilis subsp. subtilis str. 168; experiment: Copper chelating activity in Bacillus subtilis 168 assessed as reduction in cellular copper content at 100 uM incubated for 1 hr by ICP-MS analysis relative to control; set-up: scale not given: the % may be the effect or the level left
Escherichia coli = experiment: Antibacterial activity against Escherichia coli BL21 at 10 uM after 12 hrs relative to control; type: functional
[9] = system: Bacillus subtilis subsp. subtilis str. 168; experiment: Copper chelating activity in Bacillus subtilis 168 assessed as reduction in cytochrome c oxidase activity by measuring decrease in intracellular ATP level at 10 uM incubated for 15 to 90 mins by bioluminescence method relative to control; type: cell-based; set-up: scale not given: the % may be the effect or the level left
Pseudomonas aeruginosa = experiment: Antibacterial activity against Pseudomonas aeruginosa ATCC 27853 at 10 uM after 12 hrs relative to control; type: functional
Staphylococcus aureus = experiment: Antibacterial activity against Staphylococcus aureus ATCC 43300 at 10 uM after 12 hrs relative to control; type: functional
Acinetobacter baumannii = experiment: Antibacterial activity against Acinetobacter baumannii ATCC 19606 at 10 uM after 12 hrs relative to control; type: functional, ATCC 19606 = CIP 70.34 = JCM 6841
Bacillus subtilis [10] = experiment: microbe, parasite or virus in culture; conditions: subsp. subtilis str. 168, 12 h
Description: Antibacterial activity against Bacillus subtilis 168 after 12 hrs

[11] = Bacillus subtilis subsp. subtilis str. 168

| Compound | Activity [1] | Activity (Bacillus subtilis [2]; [11]) | other results |
| --- | --- | --- | --- |
| CC(C#N)CC(=O)NC[C@@H]1CC[C@H](NC(=O)C[C@@H](C)C#N)C(O)O1 (stereo partly specified) | – | – | fold change (FC) [1]: 9; Activity (Klebsiella pneumoniae): 20 - 30%; IC50 (Mushroom tyrosinase): 89.6 µM; inhibition at 100 µM (Bacillus subtilis [3]): 56 to 60%; Activity [4]: Active; Activity (Bacillus subtilis [5]): Active; Activity (Bacillus subtilis [6]): Active; Activity (Bacillus subtilis [7]): inactive; Activity (Enterococcus faecalis): 20 - 30%; Activity [8]: 24%; Activity (Escherichia coli): 20 - 30%; Activity [9]: 20%; Activity (Bacillus subtilis [2]): 50%; Activity (Pseudomonas aeruginosa): 20 - 30%; Activity (Staphylococcus aureus): 20 - 30%; Activity (Acinetobacter baumannii): 57% |
| C[C@H](CC(=O)NC[C@@H]1CC[C@H](NC(=O)C[C@@H](C)NC=O)C(O)O1)NC=O (stereo partly specified) | inactive | inactive | – |
| C[C@H](CC(=O)N[C@H](CO)CCCCNC(=O)C[C@@H](C)C#N)NC=O | inactive | inactive | – |
| COc1cc(Cc2cnc(N)nc2N)cc(OC)c1OC [TRIMETHOPRIM] | – | – | IC50 (Bacillus subtilis [10]): 0.3 µM |
| C[C@H](CC(=O)NCCCC[C@@H](CO)NC(=O)C[C@@H](C)C#N)NC=O | inactive | inactive | – |
| CC(=O)OC[C@H](CCCCNC(=O)C[C@@H](C)NC=O)NC(=O)C[C@@H](C)NC=O | inactive | inactive | – |

The next lines start with results.

| Activity [1] | Compound | Activity (Bacillus subtilis [2]; [11]) | other results |
| --- | --- | --- | --- |
| Active | C[C@@H](C#N)CC(=O)NCCCC[C@@H](CO)NC(=O)C[C@@H](C)C#N | Active | IC50 (Mushroom tyrosinase): 89.6 µM |
| inactive | C[C@H](CC(=O)N[C@H]1CC[C@@H](CNC(=O)C[C@@H](C)C#N)OC1O)NC=O (stereo partly specified) | inactive | – |
| inactive | CC(C)CCC(=O)NC[C@@H]1CC[C@H](NC(=O)C[C@@H](C)C#N)C(O)O1 (stereo partly specified) | inactive | – |
| Active | CC(=O)OC[C@H](CCCCNC(=O)C[C@@H](C)C#N)NC(=O)C[C@@H](C)C#N | Active | IC50 (Mushroom tyrosinase): 89.6 µM |
| inactive | C[C@H](CC(=O)NCCCC[C@@H](CO)NC(=O)C[C@@H](C)NC=O)NC=O | inactive | – |
| inactive | CC(C)=CCC(=O)NC[C@@H]1CC[C@H](NC(=O)C[C@@H](C)C#N)C(O)O1 (stereo partly specified) | inactive | – |
| inactive | CC(C)CC(=O)NC[C@@H]1CC[C@H](NC(=O)CC(C)C)C(O)O1 (stereo partly specified) | inactive | – |

From ChEMBL document CHEMBL4616656, “Diisonitrile-Mediated Reactive Oxygen Species Accumulation Leads to Bacterial Growth Inhibition” (J Nat Prod, 2020)
